Measurements from patent US20240383875A1, “Benzimidazole Pyridine Derivatives” (Hoffmann-La Roche Inc., priority 2022, published 2024).

Columns and labels:
Assay type in all cases: biochemical
SIK1 = SIK1 (Homo sapiens, UniProt P57059); experiment: Enzymatic activity assay SIK1, RapidFire mass spectrometry (phosphorylation of CHK-peptide); settings: RapidFire MS, inhibition of SIK1; read-out: SIK1 RF IC50
Procedure, shortened: (§1)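 Human SIK1/2/3, 5/0.5/1.5 nM; 12.5 mM HEPES pH 7.0, 10 mM Mg acetate, 0.005% BSA. 30 min cpd pre-inc, + CHK-peptide (10 μM soln) + ATP (100 μM soln), 45 min RT. Formic acid stop; RF-MS phospho ratio; IC50.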

SIK2 = SIK2 (Homo sapiens, UniProt Q9H0K1); experiment: Enzymatic activity assay SIK2, RapidFire mass spectrometry (phosphorylation of CHK-peptide); settings: RapidFire MS, inhibition of SIK2; read-out: SIK2 RF IC50
Procedure, shortened: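 Read-out is the summed phospho-species fraction of CHK-peptide by RapidFire mass spectrometry, normalized between DMSO and 1 μM YKL-05-099. The reaction used 0.5 nM SIK2, 100 μM ATP and 10 μM peptide solutions in HEPES pH 7.0/10 mM magnesium acetate for 45 min at ambient temperature.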

SIK3 = SIK3 (Homo sapiens, UniProt Q9Y2K2); experiment: Enzymatic activity assay SIK3, RapidFire mass spectrometry (phosphorylation of CHK-peptide); settings: RapidFire MS, inhibition of SIK3; read-out: SIK3 RF IC50
Procedure, shortened: as §1

SIK3, sequence (Q9Y2K2 whole entry): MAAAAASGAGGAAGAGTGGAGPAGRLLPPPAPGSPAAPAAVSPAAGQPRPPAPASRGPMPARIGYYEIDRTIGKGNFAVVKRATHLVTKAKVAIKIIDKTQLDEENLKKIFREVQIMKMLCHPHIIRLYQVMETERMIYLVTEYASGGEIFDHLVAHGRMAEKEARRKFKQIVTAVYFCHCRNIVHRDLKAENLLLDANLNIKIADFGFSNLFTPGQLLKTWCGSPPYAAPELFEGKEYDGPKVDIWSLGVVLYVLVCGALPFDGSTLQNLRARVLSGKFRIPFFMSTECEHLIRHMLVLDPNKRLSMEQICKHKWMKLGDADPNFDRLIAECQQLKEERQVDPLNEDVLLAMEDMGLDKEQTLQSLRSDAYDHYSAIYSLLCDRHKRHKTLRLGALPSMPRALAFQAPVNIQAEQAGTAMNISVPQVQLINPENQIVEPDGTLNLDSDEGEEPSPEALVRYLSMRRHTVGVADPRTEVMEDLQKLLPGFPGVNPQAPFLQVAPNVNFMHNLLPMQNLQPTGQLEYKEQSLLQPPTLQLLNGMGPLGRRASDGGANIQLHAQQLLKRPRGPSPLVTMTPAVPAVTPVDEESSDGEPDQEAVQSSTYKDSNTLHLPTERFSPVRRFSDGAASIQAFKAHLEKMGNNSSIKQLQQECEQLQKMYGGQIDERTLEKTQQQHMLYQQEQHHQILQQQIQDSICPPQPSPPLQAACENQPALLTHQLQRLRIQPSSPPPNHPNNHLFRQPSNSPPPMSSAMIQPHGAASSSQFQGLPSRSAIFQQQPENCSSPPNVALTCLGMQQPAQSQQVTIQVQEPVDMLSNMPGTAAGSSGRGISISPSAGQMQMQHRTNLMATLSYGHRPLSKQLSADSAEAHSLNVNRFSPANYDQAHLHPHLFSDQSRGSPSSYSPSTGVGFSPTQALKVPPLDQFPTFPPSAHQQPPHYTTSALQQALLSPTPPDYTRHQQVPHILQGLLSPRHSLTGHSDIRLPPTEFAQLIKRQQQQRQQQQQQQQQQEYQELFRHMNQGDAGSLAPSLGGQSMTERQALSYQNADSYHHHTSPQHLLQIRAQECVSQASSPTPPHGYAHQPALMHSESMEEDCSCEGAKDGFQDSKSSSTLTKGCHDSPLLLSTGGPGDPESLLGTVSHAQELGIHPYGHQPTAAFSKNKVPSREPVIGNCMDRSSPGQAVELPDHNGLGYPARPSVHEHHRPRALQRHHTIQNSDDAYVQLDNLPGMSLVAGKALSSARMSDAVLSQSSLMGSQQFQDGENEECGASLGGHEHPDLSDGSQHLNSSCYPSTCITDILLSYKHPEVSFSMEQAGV
SIK1, sequence (P57059 whole entry): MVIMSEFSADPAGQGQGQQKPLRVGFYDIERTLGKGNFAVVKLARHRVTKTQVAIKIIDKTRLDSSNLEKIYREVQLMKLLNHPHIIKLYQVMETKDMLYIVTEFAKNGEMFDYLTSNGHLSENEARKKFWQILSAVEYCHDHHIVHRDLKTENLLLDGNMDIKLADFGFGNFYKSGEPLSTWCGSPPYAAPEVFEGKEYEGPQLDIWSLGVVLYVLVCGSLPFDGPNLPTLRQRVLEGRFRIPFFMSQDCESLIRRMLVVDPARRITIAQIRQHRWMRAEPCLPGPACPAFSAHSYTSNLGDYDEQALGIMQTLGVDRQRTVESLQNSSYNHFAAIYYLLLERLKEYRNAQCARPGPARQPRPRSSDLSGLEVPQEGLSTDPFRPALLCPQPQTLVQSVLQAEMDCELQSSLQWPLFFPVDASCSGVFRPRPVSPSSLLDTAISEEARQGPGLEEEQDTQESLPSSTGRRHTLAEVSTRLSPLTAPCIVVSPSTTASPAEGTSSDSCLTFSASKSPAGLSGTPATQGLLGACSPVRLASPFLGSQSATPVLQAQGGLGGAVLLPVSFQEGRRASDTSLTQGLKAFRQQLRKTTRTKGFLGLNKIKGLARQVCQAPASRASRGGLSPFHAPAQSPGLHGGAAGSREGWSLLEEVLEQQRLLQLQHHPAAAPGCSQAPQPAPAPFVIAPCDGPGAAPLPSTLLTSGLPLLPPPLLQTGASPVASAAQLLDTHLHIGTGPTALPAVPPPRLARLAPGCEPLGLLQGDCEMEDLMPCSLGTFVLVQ
SIK2, sequence (Q9H0K1 whole entry): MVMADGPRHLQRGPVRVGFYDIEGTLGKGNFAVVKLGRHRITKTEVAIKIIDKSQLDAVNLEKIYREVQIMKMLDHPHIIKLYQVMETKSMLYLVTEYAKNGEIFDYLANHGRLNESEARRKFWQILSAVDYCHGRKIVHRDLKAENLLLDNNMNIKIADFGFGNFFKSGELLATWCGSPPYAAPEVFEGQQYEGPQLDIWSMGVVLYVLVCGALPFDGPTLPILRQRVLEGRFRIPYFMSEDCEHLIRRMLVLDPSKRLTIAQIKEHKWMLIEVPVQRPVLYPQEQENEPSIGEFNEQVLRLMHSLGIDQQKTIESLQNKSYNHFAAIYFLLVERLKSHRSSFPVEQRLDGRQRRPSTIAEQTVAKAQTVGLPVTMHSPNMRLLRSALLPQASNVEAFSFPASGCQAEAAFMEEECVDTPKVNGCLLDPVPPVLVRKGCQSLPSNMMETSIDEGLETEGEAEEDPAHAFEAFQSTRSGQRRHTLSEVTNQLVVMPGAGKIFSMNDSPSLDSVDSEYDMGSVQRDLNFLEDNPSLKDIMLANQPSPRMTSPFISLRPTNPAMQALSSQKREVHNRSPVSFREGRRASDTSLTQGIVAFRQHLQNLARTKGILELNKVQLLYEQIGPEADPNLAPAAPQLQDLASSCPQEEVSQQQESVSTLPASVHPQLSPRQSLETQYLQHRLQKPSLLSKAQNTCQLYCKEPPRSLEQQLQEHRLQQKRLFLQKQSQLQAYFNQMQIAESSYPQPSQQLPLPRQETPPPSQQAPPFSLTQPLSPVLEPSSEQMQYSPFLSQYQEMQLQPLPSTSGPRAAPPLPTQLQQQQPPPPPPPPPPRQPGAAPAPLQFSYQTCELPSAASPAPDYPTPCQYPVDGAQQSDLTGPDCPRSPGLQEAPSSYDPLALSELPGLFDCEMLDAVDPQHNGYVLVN

| IC50 (SIK1) [nM] | IC50 (SIK2) [nM] | IC50 (SIK3) [nM] | Compound |
| --- | --- | --- | --- |
| 5 | 0.2 | 0.5 | Cc1ccc(Nc2cc3ncn(-c4ccc([C@H](C)O)c(-n5nc(OC(F)F)cc5C)n4)c3cc2OC2COC2)nn1 [Example 383, (1S)-1-[2-[3-(difluoromethoxy)-5-methyl-pyrazol-1-yl]-6-[5-[(6-methylpyridazin-3-yl)amino]-6-(oxetan-3-yloxy)benzimidazol-1-yl]-3-pyridyl]ethanol] |
| 113 | 26 | 51.3 | Cc1cc(C#N)nn1-c1nc(-n2cnc3cc(N4CC[C@H]5CNC(=O)[C@H]54)ccc32)ccc1C(C)O (stereo partly drawn) [Example 330, 1-[6-[5-[(3aS,6aS)-6-oxo-2,3,3a,4,5,6a-hexahydropyrrolo[2,3-c]pyrrol-1-yl]benzimidazol-1-yl]-3-(1-hydroxyethyl)-2-pyridyl]-5-methylpyrazole-3-carbonitrile] |
| 8570 | 198 | 46.9 | Cc1ccc(Nc2ccc3c(c2)ncn3-c2ccc(C(C)O)c(-c3ccncc3C)n2)nn1 (stereo not drawn) [Example 162, 1-[6-[5-[(6-Methylpyridazin-3-yl)amino]benzimidazol-1-yl]-2-(3-methyl-4-pyridyl)-3-pyridyl]ethanol] |
| 2340 | 16.5 | 24.1 | Cc1nn(CC(F)(F)F)cc1-c1nc(-n2cnc3cc(Oc4ccc(CN5CCN(C)CC5)nn4)ccc32)ccc1C(C)O (stereo not drawn) [Example 352, 1-[6-[5-[6-[(4-methylpiperazin-1-yl)methyl]pyridazin-3-yl]oxybenzimidazol-1-yl]-2-[3-methyl-1-(2,2,2-trifluoroethyl)pyrazol-4-yl]-3-pyridyl]ethanol] |
| 10800 | 2240 | 476 | Cc1cc(C#N)nn1-c1nc(-n2cnc3cc(CN4CCCCC4=O)ccc32)ccc1C(C)O (stereo not drawn) [Example 216, 1-[3-(1-Hydroxyethyl)-6-[5-[(2-oxo-1-piperidyl)methyl]benzimidazol-1-yl]-2-pyridyl]-5-methyl-pyrazole-3-carbonitrile] |
| 186 | 3.9 | 4.7 | Cc1ccc(Nc2cc3ncn(-c4ccc(C(C)O)c(-n5nc(C#N)cc5C)n4)c3cc2OCCN(C)C)nn1 (stereo not drawn) [Example 189, 1-[6-[6-[2-(Dimethylamino)ethoxy]-5-[(6-methylpyridazin-3-yl)amino]benzimidazol-1-yl]-3-(1-hydroxyethyl)-2-pyridyl]-5-methyl-pyrazole-3-carbonitrile] |
| 54 | 2.2 | 0.8 | Cc1cc(C#N)nn1-c1nc(-n2cnc3cc(Nc4ccc(C(F)(F)F)nn4)ccc32)ccc1C(C)O (stereo not drawn) [Example 249, 1-[3-(1-Hydroxyethyl)-6-[5-[[6-(trifluoromethyl)pyridazin-3-yl]amino]benzimidazol-1-yl]-2-pyridyl]-5-methyl-pyrazole-3-carbonitrile] |
| 24400 | 207 | 33.5 | Cc1ccc(Nc2ccc3ncn(-c4ccc(C(C)O)c(-n5ncc(C#N)c5C)n4)c3c2)nn1 (stereo not drawn) [Example 150, 1-[3-(1-Hydroxyethyl)-6-[6-[(6-methylpyridazin-3-yl)amino]benzimidazol-1-yl]-2-pyridyl]-5-methyl-pyrazole-4-carbonitrile] |
| 134 | 0.8 | 0.2 | Cc1ccc(Nc2ccc3c(c2)ncn3-c2ccc(CO)c(-n3nc(C#N)cc3C)n2)nn1 [Example 270, 5-Methyl-1-[3-methylol-6-[5-[(6-methylpyridazin-3-yl)amino]benzimidazol-1-yl]-2-pyridyl]pyrazole-3-carbonitrile; formic acid] |
| 37 | 20.5 | 172 | COc1cc(C(F)F)nn1-c1nc(-n2cnc3ccc(Nc4ccc(C)nn4)cc32)ccc1C(C)O (stereo not drawn) [Example 397, 1-[2-[3-(difluoromethyl)-5-methoxy-pyrazol-1-yl]-6-[6-[(6-methylpyridazin-3-yl)amino]benzimidazol-1-yl]-3-pyridyl]ethanol] |
| 22 | 9.6 | 2.9 | Cc1cc(C#N)nn1-c1nc(-n2cnc3cc(Nc4ccnnc4)ccc32)ccc1C(C)O (stereo not drawn) [Example 87, 1-[3-(1-Hydroxyethyl)-6-[5-(pyridazin-4-ylamino)benzimidazol-1-yl]-2-pyridyl]-5-methyl-pyrazole-3-carbonitrile] |
| 975 | 15.1 | 4.6 | Cc1ccc(Nc2ccc3c(c2)ncn3-c2ccc(CO)c(-c3cnn(CC(F)(F)F)c3C)n2)nn1 [Example 316, [6-[5-[(6-methylpyridazin-3-yl)amino]benzimidazol-1-yl]-2-[5-methyl-1-(2,2,2-trifluoroethyl)pyrazol-4-yl]-3-pyridyl]methanol] |
| 6 | 0.3 | 0.7 | COc1cc2c(cc1Nc1ccc(C)nn1)ncn2-c1ccc(C(C)O)c(-n2nc(C#N)cc2C)n1 (stereo not drawn) [Example 185, 1-[3-(1-Hydroxyethyl)-6-[6-methoxy-5-[(6-methylpyridazin-3-yl)amino]benzimidazol-1-yl]-2-pyridyl]-5-methyl-pyrazole-3-carbonitrile] |
| 12 | 1.8 | 1.6 | Cc1cc(C#N)nn1-c1nc(-n2cnc3cc(Nc4nccnn4)ccc32)ccc1C(C)O (stereo not drawn) [Example 119, 1-[3-(1-Hydroxyethyl)-6-[5-(1,2,4-triazin-3-ylamino)benzimidazol-1-yl]-2-pyridyl]-5-methyl-pyrazole-3-carbonitrile] |
| 15400 | 88.9 | 25.7 | Cc1ccc(Nc2ccc3c(c2)ncn3-c2ccc(C(C)O)c(-n3cc(C#N)c(C)n3)n2)nn1 (stereo not drawn) [Example 182, 1-[3-(1-Hydroxyethyl)-6-[5-[(6-methylpyridazin-3-yl)amino]benzimidazol-1-yl]-2-pyridyl]-3-methyl-pyrazole-4-carbonitrile] |
| 679 | 7.8 | 2.8 | Cc1cc(C(F)F)nn1-c1nc(-n2cnc3cc(Nc4cccnn4)c(F)cc32)ccc1[C@H](C)O [Example 307, (1S)-1-[2-[3-(difluoromethyl)-5-methyl-pyrazol-1-yl]-6-[6-fluoro-5-(pyridazin-3-ylamino)benzimidazol-1-yl]-3-pyridyl]ethanol] |
| 1030 | 517 | 1660 | COc1cc2ncn(-c3ccc([C@@H](C)O)c(-c4ccc(C#N)cc4)n3)c2cc1OC [Example 40, (R)-4-(6-(5,6-Dimethoxy-1H-benzo[d]imidazol-1-yl)-3-(1-hydroxyethyl)pyridin-2-yl)benzonitrile] |
| 27000 | 6340 | 10000 | Cc1ccc(Nc2ccc3ncn(-c4ccc(C(C)O)c(-n5cc(C#N)c(C)n5)n4)c3c2)nn1 (stereo not drawn) [Example 178, 1-[3-(1-Hydroxyethyl)-6-[6-[(6-methylpyridazin-3-yl)amino]benzimidazol-1-yl]-2-pyridyl]-3-methyl-pyrazole-4-carbonitrile] |
| 532 | 4.7 | 2.9 | COC(C)Cn1ncc(-c2nc(-n3cnc4cc(Nc5ccc(C)nn5)ccc43)ccc2C(C)O)c1C (stereo not drawn) [Example 279, 1-[2-[1-(2-methoxypropyl)-5-methyl-pyrazol-4-yl]-6-[5-[(6-methylpyridazin-3-yl)amino]benzimidazol-1-yl]-3-pyridyl]ethanol] |
